Experimental data reported in PubChem BioAssay AID1963433 (Molecular Pharmacology Branch, DTP, NCI, 2024).
Several values for one entry are separate records, joined by “and”; a condition that tells them apart may be missing. Equal values may be shown once.

Test system: 772245-204-R-J1-PDC complex spheroid growth
Assay: Anticancer human tumor 772245-204-R-J1-PDC patient-derived rhabdomyosarcoma cell line growth inhibition [Asc]
Conditions: for viability, T/C: stronger effect = lower value; active = viability on the fitted dose curve at most 10% of control; inactive = the rest
Description: Multicellular complex tumor spheroid response to apoptosis pathway targeting inhibitors Alrizomadlin, Pelcitoclax, and Dasminapant in combination with a variety of drugs and investigational agents in selected tumor cell lines
The MDM2 inhibitor alrizomadlin, the Bcl-2/Bcl-xL inhibitor pelcitoclax, and the IAPs inhibitor dasminapant were evaluated both individually and in combination with standard of care and investigational anticancer small molecules within a complex spheroid model of solid tumors. . Complex spheroids include a stromal component modeled by human endothelial cells (HUVEC) and fibroblasts modeled by human mesenchymal stem cells (MSCs). The concentration ranges selected for each drug and investigational agent were based upon clinically achievable concentrations if the clinical Cmax of the agent was known.
Compounds. The drugs and investigational agents: alrizomadlin (APG-115; NSC831270), pelcitoclax (APG-1252; NSC835773), dasminapant (APG-1387;NSC834197), TAK-243 (NSC785004), copanlisib (NSC809693), olaparib (NSC753686), talazoparib (NSC767125), cobimetinib (NSC 768068), eltanexor (KPT-8602, NSC 794443), abemaciclib (NSC 768073), sotorasib (NSC818433), adagrasib (NSC 831453), MRTX-1133 (NSC 836407), Iadademestat (ORY1001, NSC 806812), and RMC-4630 (NSC839698), were obtained from the NCI Developmental Therapeutics Program Chemical Repository. The FDA-approved anticancer drug set is available from the Developmental Therapeutics Program at https://dtp.cancer.gov/organization/dscb/obtaining/available plates.htm. […] The stock solutions were prepared in dimethyl sulfoxide (DMSO, Sigma-Aldrich, St. Louis, MO, cat. D2650) at 800-fold the tested concentration and stored at -70 degrees C prior to their use. All drugs and investigational agents were tested over a range starting from a high concentration at or near the clinical Cmax and decreasing in half-log increments. If the clinical Cmax for an agent had not been determined, the highest concentration tested was 10 microM.
The patient-derived cancer (PDC) cell lines include five colon adenocarcinomas: 186277-243-T-J2-PDC, 616215-338-R-J1-PDC, 439559-082-T-J2-PDC, 463943-066-T-J2-PDC, and 519858-162-T-J1-PDC; three pancreatic carcinomas: 323965-272-R-J2-PDC, 521955-158-R6-J3-PDC, and 521955-158-R2-J5-PDC; two uterine sarcomas: 327498-152-R-J2-PDC and 993429-296-R-J1-PDC; two rhabdomyosarcomas: 755483-174-R-J1-PDC and 772245-204-R-J1-PDC; two soft tissue sarcomas: 126254-015-R-J1-PDC and 494315-158-R-J1-PDC; two malignant fibrous histiocytomas: 317291-083-R-J1-PDC and 596521-263-R-J1-PDC; two breast carcinomas: 171881-019-R-J1-PDC and 885512-296-R-J2-PDC; and one ovarian carcinoma: 6556581-035-R-J-PDC were obtained from the NCI PDMR, (https://pdmr.cancer.gov). The established cell lines HSSY-2 synovial sarcoma (RRID:CVCL 8719), SYO-1 synovial sarcoma (RRID:CVCL_7146), MPNST malignant peripheral neural sheath tumor were obtained from the Sloan Kettering Institute. The following established cell lines were purchased from the American Type Culture Collection (ATCC, Manassas, VA), Sor the received from the NCI repository:, PANC-1 pancreatic carcinoma (CRL-1469, RRID:CVCL_0480), OVCAR-5 ovarian carcinoma (RRID:CVCL_1628), OVCAR-8 ovarian carcinoma (RRID:CVCL_1629), , MCF-7 breast carcinoma (CRL-12584, RRID:CVCL_0031), MDA-MB-231 breast carcinoma (CRL-12532, RRID:CVCL_0062), NCI-H1876 small cell lung carcinoma (CRL-5902, RRID:CVCL_1503), NCI-H510A small cell lung carcinoma (HTB-184, RRID:CVCL_1565), NCI-H1417 (CRL-5869, RRID:CVCL_1469), and NCI-H196 small cell lung carcinoma (CRL-5823, RRID:CVCL_1509). Dr. Peter Houghton (Greehey Children's Cancer Research Institute, University of Texas Health Science Center, San Antonio, TX) provided Rh-18 rhabdomyosarcoma (RRID:CVCL_1659). Pooled donor human umbilical vein endothelial cells (HUVEC, Lonza, cat. CC-2519) and human mesenchymal stem cells (hMSC, Lonza, cat. PT-2501) were purchased from Lonza (Walkersville, MD).
Cell Culture. […]

[1] = curve of first compound, second compound 0.01 µM
[2] = curve of first compound, second compound 0.0316 µM
[3] = curve of first compound, second compound 0.1 µM
[4] = curve of first compound, second compound 0.316 µM
[5] = curve of first compound, second compound 1 µM
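Also: compound exposure lasted seven days.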

C#Cc1c(F)ccc2cc(O)cc(-c3ncc4c(N5CC6CCC(C5)N6)nc(OCC56CCCN5CC(F)C6)nc4c3F)c12 (configuration not stated)
inactive: viability, T/C (compound 0.0316 µM) 102% and 92.9% and 100% | viability, T/C (compound 0.1 µM) 101% and 80.2% and 97.7% | viability, T/C (compound 0.316 µM) 93% and 86.2% and 90.3% | viability, T/C (compound 1 µM) 106% and 74.9% and 95.2% | viability, T/C (compound 3.16 µM) 117% and 85.7% and 91.6% | viability, T/C (compound 10 µM) 109% and 66.4% and 75.8%
> 10000 nM: IC50 (curve of compound)

Cn1ncnc1[C@H]1c2n[nH]c(=O)c3cc(F)cc(c23)N[C@@H]1c1ccc(F)cc1 + CNC(C)C(=O)NC1CN(S(=O)(=O)c2cccc(S(=O)(=O)N3CCC4CCC(C(=O)NC(c5ccccc5)c5ccccc5)N4C(=O)C(NC(=O)C(C)NC)C3)c2)CCC2CCC(C(=O)NC(c3ccccc3)c3ccccc3)N2C1=O
inactive: viability, T/C (second compound 0.01 µM, first compound 0.000316 µM) 85.5% | viability, T/C (second compound 0.01 µM, first compound 0.001 µM) 83.7% | viability, T/C (second compound 0.01 µM, first compound 0.00316 µM) 91.7% | viability, T/C (second compound 0.01 µM, first compound 0.01 µM) 90% | viability, T/C (second compound 0.01 µM, first compound 0.0316 µM) 91% | viability, T/C (second compound 0.01 µM, first compound 0.1 µM) 76.1% | viability, T/C (second compound 0.0316 µM, first compound 0.000316 µM) 98.9% | viability, T/C (second compound 0.0316 µM, first compound 0.001 µM) 94.9% | viability, T/C (second compound 0.0316 µM, first compound 0.00316 µM) 99.7% | viability, T/C (second compound 0.0316 µM, first compound 0.01 µM) 97.1% | viability, T/C (second compound 0.0316 µM, first compound 0.0316 µM) 85% | viability, T/C (second compound 0.0316 µM, first compound 0.1 µM) 94.2% | viability, T/C (second compound 0.1 µM, first compound 0.000316 µM) 97% | viability, T/C (second compound 0.1 µM, first compound 0.001 µM) 96.6% | viability, T/C (second compound 0.1 µM, first compound 0.00316 µM) 85.7% | viability, T/C (second compound 0.1 µM, first compound 0.01 µM) 102% | viability, T/C (second compound 0.1 µM, first compound 0.0316 µM) 81.7% | viability, T/C (second compound 0.1 µM, first compound 0.1 µM) 79.4% | viability, T/C (second compound 0.316 µM, first compound 0.000316 µM) 97.3% | viability, T/C (second compound 0.316 µM, first compound 0.001 µM) 96.2% | viability, T/C (second compound 0.316 µM, first compound 0.00316 µM) 96.1% | viability, T/C (second compound 0.316 µM, first compound 0.01 µM) 82.2% | viability, T/C (second compound 0.316 µM, first compound 0.0316 µM) 89.2% | viability, T/C (second compound 0.316 µM, first compound 0.1 µM) 94.4% | viability, T/C (second compound 1 µM, first compound 0.000316 µM) 112% | viability, T/C (second compound 1 µM, first compound 0.001 µM) 88.4% | viability, T/C (second compound 1 µM, first compound 0.00316 µM) 97.8% | viability, T/C (second compound 1 µM, first compound 0.01 µM) 85.3% | viability, T/C (second compound 1 µM, first compound 0.0316 µM) 84.2% | viability, T/C (second compound 1 µM, first compound 0.1 µM) 85.6%
> 100 nM: IC50 [1] | IC50 [2] | IC50 [3] | IC50 [4] | IC50 [5]

C=C(F)C(=O)N1CCN(c2nc(OCC3CCCN3C)nc3c2CCN(c2cccc4cccc(Cl)c24)C3)CC1CC#N (configuration not stated)
3970 nM and 4730 nM and 7910 nM: IC50 (curve of compound)
inactive: viability, T/C (compound 0.0316 µM) 92.1% and 101% and 100% | viability, T/C (compound 0.1 µM) 85.8% and 91.9% and 89.9% | viability, T/C (compound 0.316 µM) 77.3% and 99.5% and 104% | viability, T/C (compound 1 µM) 87.6% and 98.4% and 95.1% | viability, T/C (compound 3.16 µM) 62.3% and 76.7% and 101%

NC1CCC(NC2CC2c2ccccc2)CC1 (configuration not stated)
> 100 nM: IC50 (curve of compound)
inactive: viability, T/C (compound 0.000316 µM) 83.9% and 103% and 99% | viability, T/C (compound 0.001 µM) 81.5% and 83.9% and 100% | viability, T/C (compound 0.00316 µM) 99% and 87.2% and 107% | viability, T/C (compound 0.01 µM) 83.2% and 87% and 97.1% | viability, T/C (compound 0.0316 µM) 84.2% and 98.8% and 103% | viability, T/C (compound 0.1 µM) 77.9% and 70.9% and 91.6%

NC(=O)C(=Cn1cnc(-c2cc(C(F)(F)F)cc(C(F)(F)F)c2)n1)c1cncnc1 + CNC(C)C(=O)NC1CN(S(=O)(=O)c2cccc(S(=O)(=O)N3CCC4CCC(C(=O)NC(c5ccccc5)c5ccccc5)N4C(=O)C(NC(=O)C(C)NC)C3)c2)CCC2CCC(C(=O)NC(c3ccccc3)c3ccccc3)N2C1=O
> 300 nM: IC50 [1] | IC50 [2] | IC50 [3] | IC50 [4] | IC50 [5]
inactive: viability, T/C (second compound 0.01 µM, first compound 0.000949 µM) 96.8% | viability, T/C (second compound 0.01 µM, first compound 0.003 µM) 107% | viability, T/C (second compound 0.01 µM, first compound 0.00949 µM) 100% | viability, T/C (second compound 0.01 µM, first compound 0.03 µM) 84.2% | viability, T/C (second compound 0.01 µM, first compound 0.0949 µM) 62.2% | viability, T/C (second compound 0.01 µM, first compound 0.3 µM) 68.5% | viability, T/C (second compound 0.0316 µM, first compound 0.000949 µM) 92.9% | viability, T/C (second compound 0.0316 µM, first compound 0.003 µM) 114% | viability, T/C (second compound 0.0316 µM, first compound 0.00949 µM) 100% | viability, T/C (second compound 0.0316 µM, first compound 0.03 µM) 77.2% | viability, T/C (second compound 0.0316 µM, first compound 0.0949 µM) 88.7% | viability, T/C (second compound 0.0316 µM, first compound 0.3 µM) 67.3% | viability, T/C (second compound 0.1 µM, first compound 0.000949 µM) 97.8% | viability, T/C (second compound 0.1 µM, first compound 0.003 µM) 98.9% | viability, T/C (second compound 0.1 µM, first compound 0.00949 µM) 91.9% | viability, T/C (second compound 0.1 µM, first compound 0.03 µM) 80.9% | viability, T/C (second compound 0.1 µM, first compound 0.0949 µM) 57.3% | viability, T/C (second compound 0.1 µM, first compound 0.3 µM) 71.7% | viability, T/C (second compound 0.316 µM, first compound 0.000949 µM) 95.3% | viability, T/C (second compound 0.316 µM, first compound 0.003 µM) 97.2% | viability, T/C (second compound 0.316 µM, first compound 0.00949 µM) 86.2% | viability, T/C (second compound 0.316 µM, first compound 0.03 µM) 77.8% | viability, T/C (second compound 0.316 µM, first compound 0.0949 µM) 62% | viability, T/C (second compound 0.316 µM, first compound 0.3 µM) 69.3% | viability, T/C (second compound 1 µM, first compound 0.000949 µM) 99.2% | viability, T/C (second compound 1 µM, first compound 0.003 µM) 97.2% | viability, T/C (second compound 1 µM, first compound 0.00949 µM) 94.4% | viability, T/C (second compound 1 µM, first compound 0.03 µM) 102% | viability, T/C (second compound 1 µM, first compound 0.0949 µM) 78.3% | viability, T/C (second compound 1 µM, first compound 0.3 µM) 56.7%

Cn1ncnc1[C@H]1c2n[nH]c(=O)c3cc(F)cc(c23)N[C@@H]1c1ccc(F)cc1
inactive: viability, T/C (compound 0.000316 µM) 84.4% and 103% and 99.8% | viability, T/C (compound 0.001 µM) 98% and 95.3% and 90.9% | viability, T/C (compound 0.00316 µM) 78.3% and 81.4% and 77% | viability, T/C (compound 0.01 µM) 87.9% and 86.6% and 89.3% | viability, T/C (compound 0.0316 µM) 69.3% and 101% and 82.6% | viability, T/C (compound 0.1 µM) 72.6% and 93.3% and 85.5%
> 100 nM: IC50 (curve of compound)
